Measured values as given in US20090099237A1, “Methods of treating inflammatory diseases” (Roche Palo Alto LLC, priority 2007, published 2009).

Key:
Test in all cases: KinomeScan kinase profiling
Assay type in all cases: binding
Conditions in all cases: 10 μM
KIT = biological target: T1, KIT (Homo sapiens, UniProt P10721)
T1 construct: purchased Ambit Biosciences

EPHA3 = biological target: T2, EPHA3 (Homo sapiens, UniProt P29320)
T2 construct: purchased Ambit Biosciences (San Diego, Calif.)

RPS6KA3 = biological target: T3, RPS6KA3 (Homo sapiens, UniProt P51812)
T3 construct: purchased Ambit Biosciences
T3 sequence (P51812 whole entry): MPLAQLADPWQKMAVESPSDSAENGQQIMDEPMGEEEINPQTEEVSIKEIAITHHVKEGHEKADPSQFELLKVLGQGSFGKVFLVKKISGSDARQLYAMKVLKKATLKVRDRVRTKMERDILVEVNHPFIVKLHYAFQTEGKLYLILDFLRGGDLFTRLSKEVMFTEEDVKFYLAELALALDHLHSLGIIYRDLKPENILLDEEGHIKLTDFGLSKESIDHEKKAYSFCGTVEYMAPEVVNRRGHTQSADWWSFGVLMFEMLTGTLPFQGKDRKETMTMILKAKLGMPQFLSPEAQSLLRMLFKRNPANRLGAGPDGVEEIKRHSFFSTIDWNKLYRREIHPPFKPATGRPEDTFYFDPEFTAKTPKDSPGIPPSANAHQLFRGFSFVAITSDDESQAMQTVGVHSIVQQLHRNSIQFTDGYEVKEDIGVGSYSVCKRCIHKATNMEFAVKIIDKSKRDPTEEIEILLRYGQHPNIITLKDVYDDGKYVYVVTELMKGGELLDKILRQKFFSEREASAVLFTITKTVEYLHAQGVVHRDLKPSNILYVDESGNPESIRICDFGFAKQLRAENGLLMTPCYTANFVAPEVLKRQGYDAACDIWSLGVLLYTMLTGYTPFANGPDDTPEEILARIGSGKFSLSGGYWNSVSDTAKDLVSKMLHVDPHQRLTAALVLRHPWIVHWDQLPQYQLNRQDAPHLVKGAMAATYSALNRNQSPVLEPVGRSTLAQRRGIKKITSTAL

PKAC-alpha = biological target: T4, PKAC-alpha (Homo sapiens, UniProt P17612)
T4 construct: purchased Ambit Biosciences

JNK3 = biological target: T5, JNK3 (Homo sapiens, UniProt P53779)
T5 construct: purchased Ambit Biosciences
Description: (§1) The selectivity of a given CK1α, CK1α-CK1δ, CK1α-CK1ε or CK1α-CK1δ-CK1ε inhibitor compound can be determined by testing the compound against a panel of known kinases. An example of such a kinase profiling technology is the “KinomeScan” from Ambit Biosciences in which compounds can be screened for their modulatory activities against more than 200 known kinases.

CLK1 = biological target: T6, CLK1 (Homo sapiens, UniProt P49759)
T6 construct: purchased Ambit Biosciences (San Diego, Calif.)
T6 sequence (P49759 whole entry): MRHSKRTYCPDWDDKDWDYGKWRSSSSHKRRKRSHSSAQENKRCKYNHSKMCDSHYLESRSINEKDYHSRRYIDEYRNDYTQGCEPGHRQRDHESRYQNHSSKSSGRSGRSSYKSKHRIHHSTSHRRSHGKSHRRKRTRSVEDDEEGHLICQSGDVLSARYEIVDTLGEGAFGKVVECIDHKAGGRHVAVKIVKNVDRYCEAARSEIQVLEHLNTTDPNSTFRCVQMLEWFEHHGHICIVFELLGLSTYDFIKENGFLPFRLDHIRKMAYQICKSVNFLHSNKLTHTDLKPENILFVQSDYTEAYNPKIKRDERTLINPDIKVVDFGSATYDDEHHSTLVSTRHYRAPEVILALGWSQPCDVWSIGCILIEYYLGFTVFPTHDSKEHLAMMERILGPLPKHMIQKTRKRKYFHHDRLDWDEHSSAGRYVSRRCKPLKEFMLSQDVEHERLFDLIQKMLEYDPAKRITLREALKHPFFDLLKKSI
Description: as §1

MKNK2 = MKNK2 (Homo sapiens, UniProt Q9HBH9)
Description: as §1

PTK2 = biological target: T7, PTK2 (Homo sapiens, UniProt Q05397)
T7 construct: purchased Ambit Biosciences
Description: as §1

PDGFRB = PDGFRB (Homo sapiens, UniProt P09619)
Description: as §1

PAK7/PAK5 = PAK7/PAK5 (Homo sapiens, UniProt Q9P286)
Description: as §1

MAP4K5 = MAP4K5 (Homo sapiens, UniProt Q9Y4K4)
Description: as §1

RAF1 = biological target: T8, RAF1 (Homo sapiens, UniProt P04049)
T8 construct: purchased Ambit Biosciences
Description: as §1

PHKG2 = PHKG2 (Homo sapiens, UniProt P15735)
PHKG2, sequence (P15735 whole entry): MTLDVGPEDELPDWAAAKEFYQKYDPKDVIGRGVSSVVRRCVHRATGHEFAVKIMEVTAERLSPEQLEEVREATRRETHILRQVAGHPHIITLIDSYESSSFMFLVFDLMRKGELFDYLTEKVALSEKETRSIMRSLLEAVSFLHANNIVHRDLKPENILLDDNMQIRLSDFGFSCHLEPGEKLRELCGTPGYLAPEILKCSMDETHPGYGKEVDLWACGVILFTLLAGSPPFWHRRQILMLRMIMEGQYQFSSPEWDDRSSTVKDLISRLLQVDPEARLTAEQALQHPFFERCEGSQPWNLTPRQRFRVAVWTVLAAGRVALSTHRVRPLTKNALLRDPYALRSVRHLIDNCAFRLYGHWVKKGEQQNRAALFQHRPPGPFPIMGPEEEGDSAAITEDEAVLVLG
Description: as §1

TTK = biological target: T9, TTK (Homo sapiens, UniProt P33981)
T9 construct: purchased Ambit Biosciences
Description: as §1

CAMKK1 = biological target: T10, CAMKK1 (Homo sapiens, UniProt Q8N5S9)
T10 construct: purchased Ambit Biosciences (San Diego, Calif.)
T10 sequence (Q8N5S9 whole entry): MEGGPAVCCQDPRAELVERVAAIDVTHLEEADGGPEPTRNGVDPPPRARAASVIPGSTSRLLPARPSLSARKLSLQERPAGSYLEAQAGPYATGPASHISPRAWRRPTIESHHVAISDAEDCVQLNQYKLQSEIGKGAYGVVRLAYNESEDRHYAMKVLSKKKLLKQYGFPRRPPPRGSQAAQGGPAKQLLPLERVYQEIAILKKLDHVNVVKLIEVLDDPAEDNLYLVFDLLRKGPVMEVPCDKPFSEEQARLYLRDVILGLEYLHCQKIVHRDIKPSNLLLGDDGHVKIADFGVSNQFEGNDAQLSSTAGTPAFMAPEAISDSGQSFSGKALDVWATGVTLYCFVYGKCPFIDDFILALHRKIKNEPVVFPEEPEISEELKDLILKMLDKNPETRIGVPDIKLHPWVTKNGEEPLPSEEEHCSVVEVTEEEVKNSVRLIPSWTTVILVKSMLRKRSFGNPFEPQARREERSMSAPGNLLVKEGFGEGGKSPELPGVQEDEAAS
Description: as §1

PDPK1 = PDPK1 (Homo sapiens, UniProt O15530)
Description: as §1

PKMYT1 = biological target: T11, PKMYT1 (Homo sapiens, UniProt Q99640)
T11 construct: purchased Ambit Biosciences
Description: as §1

ACK1 = biological target: T12, ACK1 (Homo sapiens, UniProt Q07912)
T12 construct: purchased Ambit Biosciences
T12 sequence (Q07912 whole entry): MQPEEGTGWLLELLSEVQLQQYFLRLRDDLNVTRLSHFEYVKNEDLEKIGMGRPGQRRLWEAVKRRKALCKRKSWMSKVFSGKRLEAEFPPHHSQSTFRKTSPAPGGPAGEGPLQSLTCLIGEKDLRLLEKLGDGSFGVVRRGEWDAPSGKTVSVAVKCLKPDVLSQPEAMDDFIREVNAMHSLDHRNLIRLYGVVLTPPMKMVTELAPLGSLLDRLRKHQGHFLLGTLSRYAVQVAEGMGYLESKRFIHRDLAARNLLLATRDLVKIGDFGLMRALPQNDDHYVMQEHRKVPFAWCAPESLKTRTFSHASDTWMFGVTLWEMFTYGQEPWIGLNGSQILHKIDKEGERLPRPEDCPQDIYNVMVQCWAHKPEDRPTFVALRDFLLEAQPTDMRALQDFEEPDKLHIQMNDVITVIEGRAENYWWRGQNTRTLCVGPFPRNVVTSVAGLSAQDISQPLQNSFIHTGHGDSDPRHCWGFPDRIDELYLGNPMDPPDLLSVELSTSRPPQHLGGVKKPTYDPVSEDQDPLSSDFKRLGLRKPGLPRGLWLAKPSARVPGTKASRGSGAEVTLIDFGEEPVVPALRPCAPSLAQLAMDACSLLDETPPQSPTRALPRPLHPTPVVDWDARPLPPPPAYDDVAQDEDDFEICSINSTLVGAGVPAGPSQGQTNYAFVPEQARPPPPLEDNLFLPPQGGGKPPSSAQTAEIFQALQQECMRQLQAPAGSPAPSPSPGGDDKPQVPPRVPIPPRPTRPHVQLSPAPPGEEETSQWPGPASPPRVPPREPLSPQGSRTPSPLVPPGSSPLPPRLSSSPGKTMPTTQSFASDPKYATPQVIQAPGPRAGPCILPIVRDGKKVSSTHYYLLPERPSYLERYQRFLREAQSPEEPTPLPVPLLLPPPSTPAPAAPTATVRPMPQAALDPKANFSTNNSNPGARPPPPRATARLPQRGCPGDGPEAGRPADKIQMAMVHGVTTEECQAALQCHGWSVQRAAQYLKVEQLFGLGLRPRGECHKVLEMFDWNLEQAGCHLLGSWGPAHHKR
Description: as §1

SRC = biological target: T13, SRC (Homo sapiens, UniProt P12931)
T13 construct: purchased Ambit Biosciences
Description: as §1

VEGFR2 = biological target: T14, VEGFR2 (Homo sapiens, UniProt P35968)
T14 construct: purchased Ambit Biosciences
T14 sequence (P35968 20-1356): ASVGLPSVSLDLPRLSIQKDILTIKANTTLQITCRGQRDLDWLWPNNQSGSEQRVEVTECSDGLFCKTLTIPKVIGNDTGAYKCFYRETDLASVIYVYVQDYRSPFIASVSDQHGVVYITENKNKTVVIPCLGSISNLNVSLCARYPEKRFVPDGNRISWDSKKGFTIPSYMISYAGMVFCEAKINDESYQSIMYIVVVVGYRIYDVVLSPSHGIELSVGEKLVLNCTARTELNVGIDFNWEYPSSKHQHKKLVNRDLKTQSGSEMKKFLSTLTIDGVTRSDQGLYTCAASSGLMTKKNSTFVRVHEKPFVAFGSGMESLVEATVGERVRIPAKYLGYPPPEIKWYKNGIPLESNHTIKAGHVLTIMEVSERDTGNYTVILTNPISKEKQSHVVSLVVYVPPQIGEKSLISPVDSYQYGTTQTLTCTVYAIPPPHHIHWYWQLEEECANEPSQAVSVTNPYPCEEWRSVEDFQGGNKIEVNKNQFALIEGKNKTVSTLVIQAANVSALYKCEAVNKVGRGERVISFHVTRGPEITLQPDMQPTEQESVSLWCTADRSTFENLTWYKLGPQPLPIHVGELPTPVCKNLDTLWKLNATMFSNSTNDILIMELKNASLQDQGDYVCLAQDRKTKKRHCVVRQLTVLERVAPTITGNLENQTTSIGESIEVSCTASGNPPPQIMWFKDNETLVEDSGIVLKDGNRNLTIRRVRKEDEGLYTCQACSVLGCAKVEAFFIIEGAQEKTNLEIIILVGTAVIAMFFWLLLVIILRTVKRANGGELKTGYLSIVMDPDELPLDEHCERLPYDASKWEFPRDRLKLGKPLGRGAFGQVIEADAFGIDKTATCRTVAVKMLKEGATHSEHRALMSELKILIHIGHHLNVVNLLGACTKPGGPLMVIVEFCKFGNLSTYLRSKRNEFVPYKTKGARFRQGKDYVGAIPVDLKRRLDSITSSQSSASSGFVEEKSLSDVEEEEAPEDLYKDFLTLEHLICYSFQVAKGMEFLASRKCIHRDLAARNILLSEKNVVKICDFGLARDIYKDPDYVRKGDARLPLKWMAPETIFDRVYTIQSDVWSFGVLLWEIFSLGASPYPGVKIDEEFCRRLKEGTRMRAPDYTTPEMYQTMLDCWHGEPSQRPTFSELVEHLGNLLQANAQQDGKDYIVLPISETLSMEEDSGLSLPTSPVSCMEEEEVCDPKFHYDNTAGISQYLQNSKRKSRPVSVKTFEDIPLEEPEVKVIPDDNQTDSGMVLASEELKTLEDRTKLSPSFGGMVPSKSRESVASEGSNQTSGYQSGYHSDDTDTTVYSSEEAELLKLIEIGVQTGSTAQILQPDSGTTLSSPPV
Description: as §1

ERK2 = biological target: T15, ERK2 (Homo sapiens, UniProt P28482)
T15 construct: purchased Ambit Biosciences
Description: as §1

NEK2 = NEK2 (Homo sapiens, UniProt P51955)
Description: as §1

DAPK3 = biological target: T16, DAPK3 (Homo sapiens, UniProt O43293)
T16 construct: purchased Ambit Biosciences (San Diego, Calif.)
Description: as §1

ITK = biological target: T17, ITK (Homo sapiens, UniProt Q08881)
T17 construct: purchased Ambit Biosciences
Description: as §1

STK10 = biological target: T18, STK10 (Homo sapiens, UniProt O94804)
T18 construct: purchased Ambit Biosciences
Description: as §1

CAMK1 = biological target: T19, CAMK1 (Homo sapiens, UniProt Q14012)
T19 construct: purchased Ambit Biosciences
Description: as §1

EPHA6 = biological target: T20, EPHA6 (Homo sapiens, UniProt Q9UF33)
T20 construct: purchased Ambit Biosciences (San Diego, Calif.)
Description: as §1

IGF1R = biological target: T21, IGF1R (Homo sapiens, UniProt P08069)
T21 construct: purchased Ambit Biosciences
Description: as §1

TXK = biological target: T22, TXK (Homo sapiens, UniProt P42681)
T22 construct: purchased Ambit Biosciences
Description: as §1

PAK6 = PAK6 (Homo sapiens, UniProt Q9NQU5)
Description: as §1

BTK = biological target: T23, BTK (Homo sapiens, UniProt Q06187)
T23 construct: purchased Ambit Biosciences
Description: as §1

CAMK1D = biological target: T24, CAMK1D (Homo sapiens, UniProt Q8IU85)
T24 construct: purchased Ambit Biosciences
T24 sequence (Q8IU85 whole entry): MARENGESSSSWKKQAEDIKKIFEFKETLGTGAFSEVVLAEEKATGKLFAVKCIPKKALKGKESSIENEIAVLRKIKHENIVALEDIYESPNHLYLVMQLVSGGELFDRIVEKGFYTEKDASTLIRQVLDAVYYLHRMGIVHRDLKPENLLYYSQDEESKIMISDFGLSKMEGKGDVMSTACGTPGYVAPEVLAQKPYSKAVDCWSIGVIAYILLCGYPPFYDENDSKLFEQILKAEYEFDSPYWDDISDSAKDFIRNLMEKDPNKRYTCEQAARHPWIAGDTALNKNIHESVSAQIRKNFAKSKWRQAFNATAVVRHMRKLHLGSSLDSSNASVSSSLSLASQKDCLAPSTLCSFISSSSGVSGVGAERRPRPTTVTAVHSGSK
Description: as §1

AURKC = biological target: T25, AURKC (Homo sapiens, UniProt Q9UQB9)
T25 construct: purchased Ambit Biosciences
Description: as §1

SYK = biological target: T26, SYK (Homo sapiens, UniProt P43405)
T26 construct: purchased Ambit Biosciences
Description: as §1

ERBB4 = biological target: T27, ERBB4 (Homo sapiens, UniProt Q15303)
T27 construct: purchased Ambit Biosciences
Description: as §1

STK11 = biological target: T28, STK11 (Homo sapiens, UniProt Q15831)
T28 construct: purchased Ambit Biosciences
Description: as §1

AKT1 = biological target: T29, AKT1 (Homo sapiens, UniProt P31749)
T29 construct: purchased Ambit Biosciences
Description: as §1

JNK2 = biological target: T30, JNK2 (Homo sapiens, UniProt P45984)
T30 construct: purchased Ambit Biosciences

RPS6KA2 = biological target: T31, RPS6KA2 (Homo sapiens, UniProt Q15349)
T31 construct: purchased Ambit Biosciences

Row | SMILES | % Binding (KIT) [%] | % Binding (EPHA3) [%] | % Binding (RPS6KA3) [%] | % Binding (PKAC-alpha) [%] | % Binding (JNK3) [%] | % Binding (CLK1) [%] | % Binding (MKNK2) [%] | % Binding (PTK2) [%] | % Binding (PDGFRB) [%] | % Binding (PAK7/PAK5) [%] | % Binding (MAP4K5) [%] | % Binding (RAF1) [%] | % Binding (PHKG2) [%] | % Binding (TTK) [%] | % Binding (CAMKK1) [%] | % Binding (PDPK1) [%] | % Binding (PKMYT1) [%] | % Binding (ACK1) [%] | % Binding (SRC) [%] | % Binding (VEGFR2) [%] | further results
1 | NC(=O)c1cc(-c2ccncc2)c[nH]1 [Compound A, 4-Pyridin-4-yl-1H-pyrrole-2-carboxylic acid amide] | <50 | <50 | <50 | <50 | <50 | 97 | <50 | <50 | <50 | <50 | <50 | <50 | <50 | <50 | <50 | <50 | <50 | <50 | <50 | <50 | % Binding (ERK2): <50%; % Binding (NEK2): <50%; % Binding (DAPK3): 74%; % Binding (ITK): <50%; % Binding (STK10): <50%; % Binding (CAMK1): <50%; % Binding (EPHA6): <50%; % Binding (IGF1R): <50%; % Binding (TXK): <50%; % Binding (PAK6): <50%; % Binding (BTK): <50%; % Binding (CAMK1D): <50%; % Binding (AURKC): <50%; % Binding (SYK): <50%; % Binding (ERBB4): <50%; % Binding (STK11): <50%; % Binding (AKT1): <50%; % Binding (JNK2): <50%; % Binding (RPS6KA2): <50%
2 | COc1cc(OC)c(C=C2C(O)=Nc3ccccc32)c(OC)c1 [IC261, 3-[(2,4,6-trimethoxyphenyl)methylidenyl]-indolin-2-one] | <50 | <50 | <50 | <50 | <50 | <50 | <50 | <50 | <50 | <50 | <50 | <50 | <50 | <50 | <50 | <50 | <50 | <50 | <50 | <50 | % Binding (ERK2): <50%; % Binding (NEK2): <50%; % Binding (DAPK3): <50%; % Binding (ITK): <50%; % Binding (STK10): <50%; % Binding (CAMK1): <50%; % Binding (EPHA6): <50%; % Binding (IGF1R): <50%; % Binding (TXK): <50%; % Binding (PAK6): <50%; % Binding (BTK): <50%; % Binding (CAMK1D): <50%; % Binding (AURKC): <50%; % Binding (SYK): <50%; % Binding (ERBB4): <50%; % Binding (STK11): <50%; % Binding (AKT1): <50%; % Binding (JNK2): <50%; % Binding (RPS6KA2): <50%
